Reference: US4994376A, “Detection of bacteroides gingivalis” (priority 1987, dated 1991)
Like-named read-outs stand apart in the source and are kept apart here.

Legend:
Type in all cases: biochemical
B. asaccharolyticus = conditions: β-naphthylamine liberated after 60 minutes, 37° C.
Summary of the method: (§1)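 Hydrolysis of N-CBz-glycyl-glycyl-L-arginine-β-naphthylamide over 1 h at 37 °C, then colour developed with Fast Garnet GBC (0.5 mg/ml) in 1M acetate pH 4.2 with 10% Tween 20 for 15 min at room temperature. Absorbance read at 525 nm against an enzyme-free control; activity given as nmol β-naphthylamine released in 60 min.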

B. levii = conditions: β-naphthylamine liberated after 60 minutes, 37° C.
Summary of the method: as §1

B. loescheii = conditions: β-naphthylamine liberated after 60 minutes, 37° C.
Summary of the method: as §1

B. mel. ss. intermedius = conditions: β-naphthylamine liberated after 60 minutes, 37° C.
Summary of the method: as §1

Bacteroides gingivalis = conditions: β-naphthylamine liberated after 60 minutes, 37° C.
Summary of the method: as §1

C. ochracea = conditions: strain ATCC 27872; β-naphthylamine liberated after 60 minutes, 37° C.
Summary of the method: as §1

[1] = test system: Capnocytophaga gingivalis; conditions: strain ATCC 33624; β-naphthylamine liberated after 60 minutes, 37° C.
Summary of the method: as §1

Capnocytophaga sp. = conditions: strain JD3-5; β-naphthylamine liberated after 60 minutes, 37° C.
Summary of the method: as §1

"Anaerobic vibrio" = conditions: strain SN2T2; β-naphthylamine liberated after 60 minutes, 37° C.
Summary of the method: (§2)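 Enzyme plus N-CBz-glycyl-glycyl-L-arginine-β-naphthylamide incubated 1 h at 37° C. Fast Garnet GBC (0.5 mg/ml) in 1M acetate pH 4.2 with 10% Tween 20 added; stood 15 min at RT. A525 read; activity given as nmol β-naphthylamine liberated in 60 min.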

A. seminis = conditions: strain ATCC 15768; β-naphthylamine liberated after 60 minutes, 37° C.
Summary of the method: as §2

A. viscosus = conditions: β-naphthylamine liberated after 60 minutes, 37° C.
Summary of the method: as §2

[2] = test system: Actinobacillus actinomycetemcomitans; conditions: β-naphthylamine liberated after 60 minutes, 37° C.
Summary of the method: as §2

Actinomyces israeli = conditions: β-naphthylamine liberated after 60 minutes, 37° C.
Summary of the method: as §2

Campylobacter sputorum = conditions: strain Ba1-21; β-naphthylamine liberated after 60 minutes, 37° C.
Summary of the method: as §2

Fusobacterium nucleatum = conditions: β-naphthylamine liberated after 60 minutes, 37° C.
Summary of the method: as §2

S. mutans = conditions: strain ATCC 25175; β-naphthylamine liberated after 60 minutes, 37° C.
Summary of the method: as §2

S. sanguis = conditions: β-naphthylamine liberated after 60 minutes, 37° C.
Summary of the method: as §2

Streptococcus mitis = conditions: β-naphthylamine liberated after 60 minutes, 37° C.
Summary of the method: as §2

V. parvula = conditions: strain ATCC 10790; β-naphthylamine liberated after 60 minutes, 37° C.
Summary of the method: as §2

Veillonella sp. = conditions: strain SE1M2; β-naphthylamine liberated after 60 minutes, 37° C.
Summary of the method: as §2

A. equuli = test: Aminopeptidase activity on β-naphthylamide substrates; conditions: strain ATCC 19392; β-naphthylamine liberated after 60 minutes, 37° C.
Summary of the method: as §2

A. suis = test: as above; conditions: strain ATCC 15557; β-naphthylamine liberated after 60 minutes, 37° C.
Summary of the method: as §2

F. periodonticum = test: as above; conditions: strain EK1-15; β-naphthylamine liberated after 60 minutes, 37° C.
Summary of the method: as §2

Haemophilus aphrophilus = test: as above; conditions: β-naphthylamine liberated after 60 minutes, 37° C.
Summary of the method: as §2

L. fermentum = test: as above; conditions: strain ATCC 11581; β-naphthylamine liberated after 60 minutes, 37° C.
Summary of the method: as §2

Lactobacillus casei = test: as above; conditions: β-naphthylamine liberated after 60 minutes, 37° C.
Summary of the method: as §2

S. salivarius = test: as above; conditions: β-naphthylamine liberated after 60 minutes, 37° C.
Summary of the method: as §2

Compound: Cl.N=C(N)NCCC[C@H](NC(=O)CNC(=O)CNC(=O)OCc1ccccc1)C(=O)Nc1ccc2ccccc2c1 [N-CBz-Gly-Gly-Arg, N-carbobenzoxy-glycyl-glycyl-L-arginine-β-naphthylamide hydrochloride]
- Aminopeptidase activity (B. asaccharolyticus; strain 536B): 1 nmol
- Aminopeptidase activity (B. asaccharolyticus; strain ATCC 18569): 0 nmol
- Aminopeptidase activity (B. asaccharolyticus; strain ATCC 25260): 0 nmol
- Aminopeptidase activity (B. asaccharolyticus; strain ATCC 27067): 0 nmol
- Aminopeptidase activity (B. asaccharolyticus; strain NY446): 2 nmol
- Aminopeptidase activity (B. levii; strain 18-1-5): 0 nmol
- Aminopeptidase activity (B. levii; strain 18-1-8): 1 nmol
- Aminopeptidase activity (B. loescheii; strain ATCC 15930): 1 nmol
- Aminopeptidase activity (B. loescheii; strain VPI4196): 0 nmol
- Aminopeptidase activity (B. mel. ss. intermedius; strain ATCC 25261): 0 nmol
- Aminopeptidase activity (B. mel. ss. intermedius; strain ATCC 33563): 1 nmol
- Aminopeptidase activity (B. mel. ss. intermedius; strain NCTC 9336): 1 nmol
- Aminopeptidase activity (Bacteroides gingivalis; strain 9-14K-1): 61 nmol
- Aminopeptidase activity (Bacteroides gingivalis; strain 11-1-2): 92 nmol
- Aminopeptidase activity (Bacteroides gingivalis; strain 381): 91 nmol
- Aminopeptidase activity (Bacteroides gingivalis; strain 1021): 44 nmol
- Aminopeptidase activity (Bacteroides gingivalis; strain ATCC 33277): 84 nmol
- Aminopeptidase activity (Bacteroides gingivalis; strain FAYE 19m-1): 143 nmol
- Aminopeptidase activity (C. ochracea): 8 nmol
- Aminopeptidase activity [1]: 7 nmol
- Aminopeptidase activity (Capnocytophaga sp.): 0 nmol
- Aminopeptidase activity ("Anaerobic vibrio"): 1 nmol
- Aminopeptidase activity (A. seminis): 1 nmol
- Aminopeptidase activity (A. viscosus; strain ATCC 19246): 0 nmol
- Aminopeptidase activity (A. viscosus; strain T14V): 0 nmol
- Aminopeptidase activity ([2]; strain 67): 0 nmol
- Aminopeptidase activity ([2]; strain 75): 0 nmol
- Aminopeptidase activity ([2]; strain ATCC 29523): 0 nmol
- Aminopeptidase activity ([2]; strain NCTC 9709): 1 nmol
- Aminopeptidase activity ([2]; strain Y4): 0 nmol
- Aminopeptidase activity (Actinomyces israeli; strain ATCC 12103): 0 nmol
- Aminopeptidase activity (Actinomyces israeli; strain DK2-3): 0 nmol
- Aminopeptidase activity (Campylobacter sputorum): 0 nmol
- Aminopeptidase activity (Fusobacterium nucleatum; strain 2): 3 nmol
- Aminopeptidase activity (Fusobacterium nucleatum; strain ATCC 25586): 0 nmol
- Aminopeptidase activity (Fusobacterium nucleatum; strain D31A-24): 2 nmol
- Aminopeptidase activity (S. mutans): 0 nmol
- Aminopeptidase activity (S. sanguis; strain ATCC 10556): 0 nmol
- Aminopeptidase activity (S. sanguis; strain ATCC 10557): 0 nmol
- Aminopeptidase activity (Streptococcus mitis; strain ATCC 9815): 0 nmol
- Aminopeptidase activity (Streptococcus mitis; strain ATCC 15909): 0 nmol
- Aminopeptidase activity (Streptococcus mitis; strain ATCC 15912): 0 nmol
- Aminopeptidase activity (V. parvula): 0 nmol
- Aminopeptidase activity (Veillonella sp.): 0 nmol
- Aminopeptidase activity (A. equuli): 0 nmol
- Aminopeptidase activity (A. suis): 0 nmol
- Aminopeptidase activity (F. periodonticum): 0 nmol
- Aminopeptidase activity (Haemophilus aphrophilus; strain ATCC 13252): 1 nmol
- Aminopeptidase activity (Haemophilus aphrophilus; strain ATCC 19415): 1 nmol
- Aminopeptidase activity (Haemophilus aphrophilus; strain NCTC 5908): 0 nmol
- Aminopeptidase activity (L. fermentum): 0 nmol
- Aminopeptidase activity (Lactobacillus casei; strain ATCC 7469): 0 nmol
- Aminopeptidase activity (Lactobacillus casei; strain ATCC 11578): 0 nmol
- Aminopeptidase activity (Lactobacillus casei; strain ATCC 11582): 0 nmol
- Aminopeptidase activity (S. salivarius; strain ATCC 9759): 0 nmol
- Aminopeptidase activity (S. salivarius; strain ATCC 25975): 0 nmol

Compound: CSCCC(N)C(=O)Nc1ccc2ccccc2c1 (racemic)
- Aminopeptidase activity (B. asaccharolyticus; strain 536B): 0 nmol
- Aminopeptidase activity (B. asaccharolyticus; strain ATCC 18569): 0 nmol
- Aminopeptidase activity (B. asaccharolyticus; strain ATCC 25260): 1 nmol
- Aminopeptidase activity (B. asaccharolyticus; strain ATCC 27067): 2 nmol
- Aminopeptidase activity (B. asaccharolyticus; strain NY446): 0 nmol
- Aminopeptidase activity (B. levii; strain 18-1-5): 0 nmol
- Aminopeptidase activity (B. levii; strain 18-1-8): 1 nmol
- Aminopeptidase activity (B. loescheii; strain ATCC 15930): 0 nmol
- Aminopeptidase activity (B. loescheii; strain VPI4196): 0 nmol
- Aminopeptidase activity (B. mel. ss. intermedius; strain ATCC 25261): 0 nmol
- Aminopeptidase activity (B. mel. ss. intermedius; strain ATCC 33563): 0 nmol
- Aminopeptidase activity (B. mel. ss. intermedius; strain NCTC 9336): 0 nmol
- Aminopeptidase activity (Bacteroides gingivalis; strain 9-14K-1): 0 nmol
- Aminopeptidase activity (Bacteroides gingivalis; strain 11-1-2): 0 nmol
- Aminopeptidase activity (Bacteroides gingivalis; strain 381): 0 nmol
- Aminopeptidase activity (Bacteroides gingivalis; strain 1021): 0 nmol
- Aminopeptidase activity (Bacteroides gingivalis; strain ATCC 33277): 0 nmol
- Aminopeptidase activity (Bacteroides gingivalis; strain FAYE 19m-1): 0 nmol
- Aminopeptidase activity (C. ochracea): 118 nmol
- Aminopeptidase activity [1]: 122 nmol
- Aminopeptidase activity (Capnocytophaga sp.): 28 nmol
- Aminopeptidase activity ("Anaerobic vibrio"): 0 nmol
- Aminopeptidase activity (A. seminis): 0 nmol
- Aminopeptidase activity (A. viscosus; strain ATCC 19246): 9 nmol
- Aminopeptidase activity (A. viscosus; strain T14V): 7 nmol
- Aminopeptidase activity ([2]; strain 67): 0 nmol
- Aminopeptidase activity ([2]; strain 75): 0 nmol
- Aminopeptidase activity ([2]; strain ATCC 29523): 1 nmol
- Aminopeptidase activity ([2]; strain NCTC 9709): 0 nmol
- Aminopeptidase activity ([2]; strain Y4): 0 nmol
- Aminopeptidase activity (Actinomyces israeli; strain ATCC 12103): 12 nmol
- Aminopeptidase activity (Actinomyces israeli; strain DK2-3): 33 nmol
- Aminopeptidase activity (Campylobacter sputorum): 0 nmol
- Aminopeptidase activity (Fusobacterium nucleatum; strain 2): 1 nmol
- Aminopeptidase activity (Fusobacterium nucleatum; strain ATCC 25586): 0 nmol
- Aminopeptidase activity (Fusobacterium nucleatum; strain D31A-24): 0 nmol
- Aminopeptidase activity (S. mutans): 5 nmol
- Aminopeptidase activity (S. sanguis; strain ATCC 10556): 23 nmol
- Aminopeptidase activity (S. sanguis; strain ATCC 10557): 18 nmol
- Aminopeptidase activity (Streptococcus mitis; strain ATCC 9815): 52 nmol
- Aminopeptidase activity (Streptococcus mitis; strain ATCC 15909): 12 nmol
- Aminopeptidase activity (Streptococcus mitis; strain ATCC 15911): 13 nmol
- Aminopeptidase activity (Streptococcus mitis; strain ATCC 15912): 17 nmol
- Aminopeptidase activity (V. parvula): 0 nmol
- Aminopeptidase activity (Veillonella sp.): 0 nmol
- Aminopeptidase activity (A. equuli): 0 nmol
- Aminopeptidase activity (A. suis): 0 nmol
- Aminopeptidase activity (F. periodonticum): 0 nmol
- Aminopeptidase activity (Haemophilus aphrophilus; strain ATCC 13252): 0 nmol
- Aminopeptidase activity (Haemophilus aphrophilus; strain ATCC 19415): 0 nmol
- Aminopeptidase activity (Haemophilus aphrophilus; strain NCTC 5908): 0 nmol
- Aminopeptidase activity (L. fermentum): 6 nmol
- Aminopeptidase activity (Lactobacillus casei; strain ATCC 7469): 1 nmol
- Aminopeptidase activity (Lactobacillus casei; strain ATCC 11578): 9 nmol
- Aminopeptidase activity (Lactobacillus casei; strain ATCC 11582): 9 nmol
- Aminopeptidase activity (S. salivarius; strain ATCC 9759): 5 nmol
- Aminopeptidase activity (S. salivarius; strain ATCC 25975): 1 nmol
